Results: BindingDB's records for doi:10.1111/cbdd.12161 (Dalian University of Technology, 2013)

Biological target: T1, Induced myeloid leukemia cell differentiation protein Mcl-1 [172-327] (Homo sapiens, UniProt Q07820)
T1 construct: 172-327
Assay: ITC experiments
Conditions: pH 8; 25 °C
Description: ITC experiments were carried out using iTC200 (Microcal LLC, Northampton, MA, USA) with each of the compounds 1-6 and Mcl-1 protein. The heat of reaction was obtained by making 16 injections (2.4 µL each) of the ligand (final concentration in the syringe of 200 µM in 50 mM Tris, 150 mM NaCl, and 5% DMSO, pH 8.0) into the reaction cell that contained Mcl-1 in the same buffer (final protein concentration of 20 µM). The experiments were done at 25°C and at a stirring speed of 500 rpm. For the control experiment, the sample cell was filled with the assay buffer and the compound solution was added, respectively.

T1 sequence (Q07820 172-327): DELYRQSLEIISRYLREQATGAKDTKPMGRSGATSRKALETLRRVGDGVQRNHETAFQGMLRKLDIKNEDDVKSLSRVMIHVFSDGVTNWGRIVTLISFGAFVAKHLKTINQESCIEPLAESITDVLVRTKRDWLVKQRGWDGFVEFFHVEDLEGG

Row | SMILES | Kd [nM]
1 | Cc1ccc(Sc2ccc3c(c2)C(=O)c2cc(O)c(O)cc2C3=O)cc1 | 950
2 | O=C1c2ccc(Sc3ccccc3)cc2C(=O)c2cc(O)c(O)cc21 | 1470
3 | CC(C)c1ccc(Sc2ccc3c(c2)C(=O)c2cc(O)c(O)cc2C3=O)cc1 | 238
4 | O=C1c2ccc(Br)cc2C(=O)c2cc(O)c(O)cc21 | 1840
5 | O=C1c2ccccc2C(=O)c2cc(O)c(O)cc21 | 1850
